The text below walks through data of patent publication US20080176255A1, “Mold detection composition and methods” (priority 2007, published 2008).

A short description of the series: Solubility in distilled water. The format is physicochemical. The source says:
In one embodiment, the compositions described herein may further comprise a solvent; a gelling agent; and a diluent.

Where a name gives a salt, the structure may show the parent alone.

Turning to `O=S(=O)(O)c1ccccc1C=Cc1ccc(-c2ccc(C=Cc3ccccc3S(=O)(=O)O)cc2)cc1` [BBD, 2,2′-([1,1′-Biphenyl]-4,4′-diyldi-2,1-ethenediyl)bis-benzenesulfonic acid disodium salt], the solubility (in general, the concentration that dissolves in the medium under given conditions) reads like this: (at 25° C.) 25 mg/mL; (at 95° C.) 300 mg/mL.
